Measured values: patent publication US10864188B2, “Anti-microbial composition” (SEPTEOS, priority 2010, dated 2020)

Columns and labels:
[1] = tested on: Staphylococcus And Enterococcus; assay: MIC of pure components in Mueller Hinton gelose; format: cell-based; parameters: MIC 50 / MIC 90: unit not given beside the values; details: Staphylococcus And Enterococcus n = 14; for MIC Range: in µg/mL
Other Gram - rods = assay: MIC of pure components in Mueller Hinton gelose; format: cell-based; parameters: unit not given beside the values; details: Other Gram - rods n = 15
Enterobacteriaceae = assay: MIC of pure components in Mueller Hinton gelose; format: cell-based; parameters: unit not given beside the values; details: Enterobacteriaceae n = 13
MRSA = details: cited from earlier work

## CC(=O)OCC=Cc1ccccc1 [Cinnamyl acetate, cinnamyl acetate]
[1]
  MIC Range: 5000-10000
Other Gram - rods
  MIC 50: >10000
  MIC 90: >10000

## C=C1CC/C=C(\C)CC[C@@H]2[C@@H]1CC2(C)C [Caryophyllene, beta-caryophyllene]
[1]
  MIC 50: >10000
  MIC 90: >10000
Enterobacteriaceae
  MIC 50: >10000
  MIC 90: >10000
  MIC Range: >10000
Other Gram - rods
  MIC 50: >10000
  MIC 90: >10000
  MIC Range: >10000

## C=CC(C)(O)CCC=C(C)C (stereo not shown) [Linalool, linalool]
[1]
  MIC Range: 2500-10000
Other Gram - rods
  MIC 50: >10000
  MIC 90: >10000

## O=C/C=C/c1ccccc1 [Cinnamaldehyde, trans-cinnamaldehyde]
[1]
  MIC Range: 150-300
Enterobacteriaceae; in µg/mL
  MIC Range: 150-600
Other Gram - rods
  MIC 50: 600
  MIC 90: 1250
Other Gram - rods; in µg/mL
  MIC Range: 150-1250
MRSA
  bibliographic kinetic data on the main compound: 1.7 h

## CC12CCC(CC1)C(C)(C)O2 [Cineole, cineole]
Other Gram - rods
  MIC Range: >10000

## O=C(OCc1ccccc1)c1ccccc1 [Benzyl benzoate, benzyl benzoate]
Other Gram - rods
  MIC Range: >10000
